Organism: Rattus norvegicus
Assay: DrugMatrix - Regimen: Daily Repeat
Type: toxicity, organism-based, Sprague-Dawley
Parameters: regimen Daily Repeat, gender Male, age 6-8 weeks
Conditions: in vivo, po, route oral GAVAGE, […]; for ABSOLUTE BASOPHIL / ABSOLUTE EOSINOPHIL / ABSOLUTE LYMPHOCYTE / ABSOLUTE MONOCYTE / ABSOLUTE SEGMENTED NEUTROPHIL / BASOPHIL / EOSINOPHIL / ERYTHROCYTE COUNT / HEMATOCRIT / HEMOGLOBIN / LEUKOCYTE COUNT / LYMPHOCYTE / MEAN CORPUSCULAR HEMOGLOBIN / MEAN CORPUSCULAR HEMOGLOBIN CONCENTRATION / MEAN CORPUSCULAR VOLUME / MONOCYTE / NEUTROPHIL / NUCLEATED RED BLOOD CELLS / PLATELET COUNT: tissue Blood; for ALANINE AMINOTRANSFERASE / ALBUMIN / ALKALINE PHOSPHATASE / ASPARTATE AMINOTRANSFERASE / BLOOD UREA NITROGEN / CARBON DIOXIDE / CHLORIDE / CHOLESTEROL / CREATINE PHOSPHOKINASE / CREATININE / GLUCOSE / LACTATE DEHYDROGENASE / LIPASE / PHOSPHORUS / POTASSIUM / SODIUM / TOTAL BILIRUBIN / TOTAL PROTEIN / URIC ACID: tissue Plasma
[1] = 0 mg/kg, 72 h, dose level Control, time 3 day
[2] = 0 mg/kg, 120 h, dose level Control, time 5 day
[3] = 0 mg/kg, dose level Control, time 28 day
[4] = 56 mg/kg, 72 h, dose level Low, time 3 day

NC[C@@H]1O[C@H](O[C@H]2[C@@H](O)[C@H](O[C@@H]3[C@@H](O)[C@H](N)C[C@H](N)[C@H]3O[C@H]3O[C@H](CN)[C@@H](O)[C@H](O)[C@H]3N)O[C@@H]2CO)[C@H](N)[C@@H](O)[C@@H]1O [FRAMYCETIN]
ABSOLUTE BASOPHIL [1]: 0 CELLS/uL
ABSOLUTE EOSINOPHIL [1]: 33 CELLS/uL
ABSOLUTE LYMPHOCYTE [1]: 9048.5 CELLS/uL
ABSOLUTE MONOCYTE [1]: 80.17 CELLS/uL
ABSOLUTE SEGMENTED NEUTROPHIL [1]: 1521.67 CELLS/uL
BASOPHIL [1]: 0%
EOSINOPHIL [1]: 0.17%
ERYTHROCYTE COUNT [1]: 5.46 x10E6/uL
HEMATOCRIT [1]: 32.87%
HEMOGLOBIN [1]: 12.95 G/DL
LEUKOCYTE COUNT [1]: 10.68 x10E3/uL
LYMPHOCYTE [1]: 86.67%
MEAN CORPUSCULAR HEMOGLOBIN [1]: 23.72 pg
MEAN CORPUSCULAR HEMOGLOBIN CONCENTRATION [1]: 39.4 G/DL
MEAN CORPUSCULAR VOLUME [1]: 60.18 fL
MONOCYTE [1]: 0.83%
NEUTROPHIL [1]: 12.33%
NUCLEATED RED BLOOD CELLS [1]: 0 /100WBC
PLATELET COUNT [1]: 1211.33 x10E3/uL
ALANINE AMINOTRANSFERASE [1]: 76.67 u/L
ALBUMIN [1]: 3.93 G/DL
ALKALINE PHOSPHATASE [1]: 317.17 u/L
ASPARTATE AMINOTRANSFERASE [1]: 81.17 u/L
BLOOD UREA NITROGEN [1]: 12.33 mg/dL
CARBON DIOXIDE [1]: 31.17 mmol/L
CHLORIDE [1]: 98.33 MEQ/L
CHOLESTEROL [1]: 67.17 mg/dL
CREATINE PHOSPHOKINASE [1]: 312.33 u/L
CREATININE [1]: 0.19 mg/dL
GLUCOSE [1]: 165.5 mg/dL
LACTATE DEHYDROGENASE [1]: 94.5 u/L
LIPASE [1]: 9.83 u/L
PHOSPHORUS [1]: 10.1 mg/dL
POTASSIUM [1]: 5.16 MEQ/L
SODIUM [1]: 143.02 MEQ/L
TOTAL BILIRUBIN [1]: 0.2 mg/dL
TOTAL PROTEIN [1]: 5.88 G/DL
URIC ACID [1]: 0.68 mg/dL
ABSOLUTE BASOPHIL [2]: 0 CELLS/uL
ABSOLUTE EOSINOPHIL [2]: 14.67 CELLS/uL
ABSOLUTE LYMPHOCYTE [2]: 9629.83 CELLS/uL
ABSOLUTE MONOCYTE [2]: 72.5 CELLS/uL
ABSOLUTE SEGMENTED NEUTROPHIL [2]: 1049.67 CELLS/uL
NUCLEATED RED BLOOD CELLS [2]: 0.17 /100WBC
CARBON DIOXIDE [2]: 26.4 mmol/L
LACTATE DEHYDROGENASE [2]: 83.5 u/L
LIPASE [2]: 85.83 u/L
URIC ACID [2]: 0.8 mg/dL
BASOPHIL [3]: 0.42%
EOSINOPHIL [3]: 0.58%
ERYTHROCYTE COUNT [3]: 8.06 x10E6/uL
HEMATOCRIT [3]: 48.44%
HEMOGLOBIN [3]: 16.34 G/DL
LEUKOCYTE COUNT [3]: 13.04 x10E3/uL
LYMPHOCYTE [3]: 85.12%
MEAN CORPUSCULAR HEMOGLOBIN [3]: 20.26 pg
MEAN CORPUSCULAR HEMOGLOBIN CONCENTRATION [3]: 33.74 G/DL
MEAN CORPUSCULAR VOLUME [3]: 60.1 fL
MONOCYTE [3]: 1.44%
NEUTROPHIL [3]: 11.28%
PLATELET COUNT [3]: 1226 x10E3/uL
ALANINE AMINOTRANSFERASE [3]: 28.6 u/L
ALBUMIN [3]: 3.94 G/DL
ALKALINE PHOSPHATASE [3]: 254.6 u/L
ASPARTATE AMINOTRANSFERASE [3]: 67.8 u/L
BLOOD UREA NITROGEN [3]: 10.4 mg/dL
CHLORIDE [3]: 104.6 MEQ/L
CHOLESTEROL [3]: 57.6 mg/dL
CREATINE PHOSPHOKINASE [3]: 224.8 u/L
CREATININE [3]: 0.4 mg/dL
GLUCOSE [3]: 140.6 mg/dL
PHOSPHORUS [3]: 10.66 mg/dL
POTASSIUM [3]: 6.58 MEQ/L
SODIUM [3]: 148.6 MEQ/L
TOTAL BILIRUBIN [3]: 0.24 mg/dL
TOTAL PROTEIN [3]: 6.64 G/DL
ABSOLUTE BASOPHIL [4]: 0 CELLS/uL
ABSOLUTE EOSINOPHIL [4]: 0 CELLS/uL
ABSOLUTE LYMPHOCYTE [4]: 8427.33 CELLS/uL
ABSOLUTE MONOCYTE [4]: 92.67 CELLS/uL
ABSOLUTE SEGMENTED NEUTROPHIL [4]: 980 CELLS/uL
BASOPHIL [4]: 0%
EOSINOPHIL [4]: 0%
ERYTHROCYTE COUNT [4]: 5.46 x10E6/uL
HEMATOCRIT [4]: 33.8%
HEMOGLOBIN [4]: 13.4 G/DL
LEUKOCYTE COUNT [4]: 9.5 x10E3/uL
LYMPHOCYTE [4]: 88.67%
MEAN CORPUSCULAR HEMOGLOBIN [4]: 24.57 pg
MEAN CORPUSCULAR HEMOGLOBIN CONCENTRATION [4]: 39.63 G/DL
MEAN CORPUSCULAR VOLUME [4]: 61.9 fL
MONOCYTE [4]: 1%
NEUTROPHIL [4]: 10.33%
NUCLEATED RED BLOOD CELLS [4]: 0 /100WBC
PLATELET COUNT [4]: 1108.33 x10E3/uL
ALANINE AMINOTRANSFERASE [4]: 81 u/L
ALBUMIN [4]: 4.1 G/DL
ALKALINE PHOSPHATASE [4]: 367.33 u/L
ASPARTATE AMINOTRANSFERASE [4]: 87 u/L
BLOOD UREA NITROGEN [4]: 11.67 mg/dL
CARBON DIOXIDE [4]: 33.33 mmol/L
CHLORIDE [4]: 97 MEQ/L
CHOLESTEROL [4]: 89.67 mg/dL
CREATINE PHOSPHOKINASE [4]: 277.67 u/L

— ChEMBL document CHEMBL3885881, “DrugMatrix”
